US20080280860A1, “Use of Vitamin D Compounds to Treat Endometriosis” (BioXell S.p.A., priority 2005, published 2008)

How the values were obtained:
endometriotic lesions = test: In vivo model of endometriosis (lesion weight); parameters: species or system Balb/c mice; conditions: Example 2; each compound at its maximum tolerated level, ip once a day, 5 days a week for two weeks
Experimental: Balb/c donor mice were injected with estrogen (Estradiol AMSA; 3 ug/mouse) and one week later were sacrificed and the uterus was removed, the two horns isolated and reduced to small fragments. The fragments derived from the isolated uterine horns were resuspended in saline with ampicillin (1 mg/ml) and then injected into the peritoneum of two recipient Balb/c mice, previously anesthesized, through a 0.5 cm incision in the abdominal wall. […] Antibiotic (ampicillin 1 mg/ml) was administered on the day of the surgery and on the day after. […] […] Lesions can be identified as translucid isolated or grouped cysts mainly found on the abdominal wall, on the pancreas, and around the uterus. In some cases the lesions are necrotic. The lesions were carefully removed and put on a glass slide to dry for 48 hours, and then were weighed. In other experiments lesions are transferred to a lysis solution and mRNA isolated for gene expression analysis. For immunohistochemical analysis, lesions were frozen immediately after isolation.
Balb/c donor mice were injected with estrogen (Estradiol AMSA; 3 ug/mouse) and one week later were sacrificed and the uterus was removed, the two horns isolated and reduced to small fragments. The fragments derived from the isolated uterine horns were resuspended in saline with ampicillin (1 mg/ml) and then injected into the peritoneum of two recipient Balb/c mice, previously anesthetised, through a 0.5 cm incision in the abdominal wall. Antibiotic (ampicillin 1 mg/ml) was administered on the day of the surgery and on the day after. […] Dosage levels of the test compounds were at the maximum tolerated levels for the compound in question, i.e. 1-alpha-fluoro-25-hydroxy-16,23E-diene-26,27-bishomo-20-epi-cholecalciferol (Compound A) 100 ug/kg, calcitriol (Compound B) 0.3 ug/kg and 1,25-dihydroxy-21-(3-hydroxy-3-methylbutyl)-19-nor-cholecalciferol (Compound C) 3 ug/kg.
(§1) […] Lesions can be identified as translucid isolated or grouped cysts mainly found on the abdominal wall, on the pancreas, and around the uterus. In some cases the lesions are necrotic. The lesions were carefully removed and put on a glass slide to dry for 48 hours, and then were weighed.
Balb/c donor mice were injected with estrogen (Estradiol AMSA; 3 ug/mouse) and one week later were sacrificed and the uterus was removed, the two horns isolated and reduced to small fragments. The fragments derived from the isolated uterine horns were resuspended in saline with ampicillin (1 mg/ml) and then injected into the peritoneum of recipient Balb/c mice, previously anesthetised, through a 0.5 cm incision in the abdominal wall. Antibiotic (ampicillin 1 mg/ml) was administered on the day of the surgery and on the day after. […]
as §1, with “weighed. At least 10 test animals were used in each group.” for “weighed.”
Further experiments were performed using Compound A at 100 ug/kg but varying the time at which administration of the vitamin D compound was initiated and the time point at which administration was ceased. Specifically: (i) administration for 1 week prior to injection of the uterine fragments (ii) administration for 2 weeks subsequent to injection of the uterine fragments (iii) administration for 1 week prior and 2 weeks subsequent to injection of the uterine fragments (iv) administration for 2 weeks, initiated two days subsequent to injection of the uterine fragments (v) administration for 2 weeks, initiated two weeks subsequent to injection of the uterine fragments. In these experiments, subjects were sacrificed at the later of two weeks post injection or the end of the treatment period as appropriate.

Maximum tolerated dose = type: in vivo, Balb/c mice; conditions: Balb/c, mouse, in vivo; mice, ip; above it the compound becomes hypercalcemic

| Compound | lesion weight, treated versus control (vehicle only), statistical analysis (endometriotic lesions) | MTD (Maximum tolerated dose) [µg/kg] |
| --- | --- | --- |
| C=C1/C(=C\C=C2/CCC[C@]3(C)[C@@H]([C@H](C)CCCC(C)(C)O)CC[C@@H]23)C[C@@H](O)C[C@@H]1O [Compound B, calcitriol, reference compound] | significant reduction in lesion weight | 0.3 |
| CC(C)(O)CCCC(CCCC(C)(C)O)[C@H]1CC[C@H]2/C(=C/C=C3C[C@@H](O)C[C@H](O)C3)CCC[C@]12C [Compound C, 1,25-dihydroxy-21-(3-hydroxy-3-methylbutyl)-19-nor-cholecalciferol] | no significant reduction in lesion weight | 3 |
